What was measured:
[1] = target: T1, tau inclusions in brain sections from transgenic P301S tau mice (human 0N4R tau) (Homo sapiens, UniProt P10636, P618S); assay: In vitro fluorescence microscopy of binding to transgenic P301S tau mouse brain sections
T1 construct: from tissue; host or cells: brain of transgenic P301S tau mice (C57Bl/6 background)
Procedure: We then screened all of the compounds for their binding to tau inclusions in brain sections from transgenic P301S tau mice, which express the shortest isoform (0N4R) of human 4-repeat (4R) tau,[18] using their autofluorescence properties to rapidly analyze their binding.
Mice were perfused with PBS followed by 4% PFA. Following 24 h in 4% PFA, the brains were transferred to 20% sucrose prior to being embedded in OCT for cryo-sectioning. Sections (14 μm) were incubated with 50 μM LM229 or PBB3 for 1 h, washed in PBS + 0.1% Triton X-100, and cover-slipped with Vectashield mounting medium. Sections were imaged using a Leica DM6000 microscope. Mouse monoclonal AT8 (MN1020) or AT100 (MN1060) were from ThermoFisher and used at 1:1000. Anti-mouse secondary antibody was conjugated to AlexaFluor647.

[2] = target: tau (AT8) in AD frontal cortex sections (Homo sapiens, UniProt P10636); assay: Staining of post-mortem AD frontal cortex sections, tau
Procedure: (§1) To further validate LM229 as a potential radiotracer for translational research, we investigated its binding to tau aggregates in human globus pallidus/putamen from progressive supranuclear palsy (PSP) subjects (Figure 7) and its selectivity for tau over β-amyloid pathology in AD frontal cortex sections (Figure 8).
In slices from frontal cortex of AD brains, LM229 gave rise to strong signal (Figure 8A), which colocalized with AT8 immunofluorescence (Figure 8B). […]
(§2) buffer) for 1 h at room temperature. Following 3 washes in PBS/0.1% Triton X-100, 50 µM LM229 (diluted in 1:1 blocking buffer/ethanol) was then added for 1 h at room temperature. Nuclei were stained with DAPI (0.1mg/ml for 10 min), washed and tissues mounted in FluorSaveTM prior to analysis using fluorescence […]
(§3) Binding affinity of all compounds with tau fibrils
Microscale Thermophoresis was first used to screen whether there were interaction between the compounds and tau fibrils. For this procedure 200 µL, 5 µM tau fibrils were mixed with 200 µL, 10 µM NT647-NHS dye and then incubated in dark for 30 minutes. Further dialysis (18 hours, changing the buffer after the first 4 hours) was used to remove the free dye giving a 2.5 µM solution of label led protein. […] With each compound, two concentrations (1µM and 1nM) were used to mix with 100nM tau fibrils and then loaded to the MST instrument to read out the MST data curve. […]

[3] = target: β-amyloid in AD frontal cortex sections (Homo sapiens, UniProt P05067); assay: Staining of post-mortem AD frontal cortex sections, β-amyloid
Source text: as §1, with “8). […] In slices from frontal cortex of AD brains, LM229 gave rise to strong signal (Figure 8A), which colocalized with AT8 immunofluorescence (Figure 8B).” for “8).”

[4] = target: tau aggregates in human globus pallidus/putamen from PSP subjects (Homo sapiens, UniProt P10636); assay: Staining of post-mortem PSP brain tissue; settings: colocalized with AT8
Procedure: as §1, with “8). […]” for “8).”
as §2, §3
Microscale Thermophoresis was first used to screen whether there were interaction between the compounds and tau fibrils. […] With each compound, two concentrations (1µM and 1nM) were used to mix with 100nM tau fibrils and then loaded to the MST instrument to read out the MST data curve. […]
DRG were incubated with the indicated concentrations of LM229 or PBB3 for 20 minutes at room temperature, washed 3 times in PBS, and imaged on a Leica DMI 4000B microscope using a Leica DFC3000 G camera and the Leica application suite 4.0.0.11706. Fluorescence intensity was measured in 10-16 neurons each from 3 independent cultures using Image J (imagej.nih.gov/ij/). […]

[5] = system: 3R tau151-391 aggregates in cortical sections from SHR24 rats; assay: Binding to SHR24 transgenic rat brain sections; settings: SHR24 (3R) vs SHR72 (4R) brain tissue
Source text: (§4) Since future PET studies for development of these compounds would require kinetic modeling for their assessment in vivo, we tested their performance in tau transgenic rats. Rat brains and blood volumes are about 6- and 10-fold larger, respectively, than those of mice and thus enable higher resolution imaging and ample volume for repeated blood sampling. We used two transgenic rat lines expressing human-truncated tau comprising the proline-rich region and either three microtubule binding domains (3R tau151-391, SH24)[28] or four microtubule binding domains (4R tau151-391, SHR72).[29] […] However, compared to the SHR24 rat brain sections, there were less inclusions detected, which seems to indicate the compounds have preferential binding toward the three repeat forms of tau in these rat models.
(§5) Fresh frozen rat brain coronal sections (10 μm) were stored on slides at −80 °C until use. Sections were fixed in ice cold acetone for 10 min and air-dried and then rehydrated twice for 5 min with buffer (10 mM PBS with 0.1% Triton X-100) before application of 5% bovine serum albumin for 1 h and two more 5 min buffer washes. Primary monoclonal antibody AT8 (Thermo MN1020, 1:1000) was added overnight at 4 °C, followed by 1 h incubation with a mixture of secondary AlexaFluor555 goat anti-mouse antibody (1:1000) and 50 μM PBB3 or LM229 in 50:50 ethanol/buffer. Following two 5 min washes in buffer, the slides were air-dried and cover-slipped using Fluorsave before analysis. The green autofluorescence of PBB3 and LM229 was visualized using a 488 nm filter and fluorescence of AT8 using a 568 nm filter on a Leica DM6000 microscope.

[6] = target: T2, 3R tau151-391 aggregates in cortical sections from SHR24 rats (Homo sapiens, UniProt P10636); assay: Binding to SHR24 transgenic rat brain sections; settings: 50 μM, colocalization with AT8
T2 construct: tissue AXON Neuroscience; host or cells: brain (cortex) sections of SHR24 transgenic rats
Source text: as §4, §5

T1 sequence (P10636 1-383 isoform P10636-6 P243S): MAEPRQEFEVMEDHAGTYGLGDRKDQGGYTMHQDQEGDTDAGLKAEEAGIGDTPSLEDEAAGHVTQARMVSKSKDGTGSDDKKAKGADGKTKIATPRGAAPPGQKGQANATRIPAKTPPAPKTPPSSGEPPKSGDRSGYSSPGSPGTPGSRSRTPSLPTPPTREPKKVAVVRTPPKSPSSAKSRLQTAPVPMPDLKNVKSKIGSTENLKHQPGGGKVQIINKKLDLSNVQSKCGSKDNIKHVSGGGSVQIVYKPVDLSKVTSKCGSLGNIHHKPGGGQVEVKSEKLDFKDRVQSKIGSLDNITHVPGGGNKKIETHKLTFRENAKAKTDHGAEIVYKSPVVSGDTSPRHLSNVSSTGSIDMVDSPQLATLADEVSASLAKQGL
T2 sequence (P10636 151-360 isoform P10636-5): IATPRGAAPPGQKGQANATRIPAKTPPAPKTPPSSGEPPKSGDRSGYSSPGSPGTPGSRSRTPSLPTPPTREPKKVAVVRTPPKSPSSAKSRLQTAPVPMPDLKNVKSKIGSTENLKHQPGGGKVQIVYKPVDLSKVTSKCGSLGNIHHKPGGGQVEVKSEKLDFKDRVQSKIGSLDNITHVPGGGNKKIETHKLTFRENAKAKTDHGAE
Sequence of tau aggregates in human globus pallidus/putamen from PSP subjects (P10636 561-698 limits assumed): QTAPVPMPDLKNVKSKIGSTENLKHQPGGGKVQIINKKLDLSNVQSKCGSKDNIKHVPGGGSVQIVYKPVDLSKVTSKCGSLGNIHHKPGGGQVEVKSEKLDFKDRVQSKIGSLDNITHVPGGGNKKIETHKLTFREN
Sequence of β-amyloid in AD frontal cortex sections (P05067 672-711 limits assumed): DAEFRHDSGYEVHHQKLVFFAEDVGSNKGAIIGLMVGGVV
Sequence of tau (AT8) in AD frontal cortex sections (P10636 623-708 limits assumed): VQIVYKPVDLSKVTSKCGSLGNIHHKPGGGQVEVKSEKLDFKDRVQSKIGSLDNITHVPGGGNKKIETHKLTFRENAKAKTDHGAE

## CNc1ccc(/C=C/C=C/c2nc3cc(F)c(O)cc3s2)cn1 [LM229]
[1]; 2 months old mice
  Binding to P301S tau mouse brain sections, 2 months of age: Rare binding
[1]; 6 months old mice
  Binding to P301S tau mouse brain sections, 6 months of age: significant binding to large populations of neurons
[1]; autofluorescence, co-staining with AT8 and AT100
  Binding to tau inclusions in P301S tau mouse brain sections: intense, specific binding
[1]; brainstem sections from WT animals
  Binding to WT mouse brain sections: No specific binding
[2]
  Signal on AD frontal cortex slices colocalized with AT8: strong signal
[3]
  Fluorescence intensity colocalized with Aβ relative to tau: lower
[4]
  Signal on PSP sections: intense signal
[5]
  Preference between 3R and 4R tau inclusions in rat models: preferential binding toward the 3R tau inclusions
[6]
  Binding to pathological aggregated tau in SHR24 rat brain sections: bound with similar properties to pathological aggregated tau
